Results published in patent EP3818828A1 (priority 2019, dated 2021).
Values joined by “and” are separate entries in the source; they are usually repeats but may differ in a detail not shown here. Identical values can stand only once.

What was measured:
L.taurica = experiment: Field efficiency test, tomato powdery mildew; assay type: in vivo; conditions: solar greenhouse
Description: (§1) The formulation of emulsifiable concentrate is the same as that in Embodiment 3.
Tomatoes (Variety: Song Tian Fen Yang Yang) were planted in a solar greenhouse. 14% of 3-(3',4'-methylenedioxy phenyl)-piperidine acrylate EC was diluted at four concentrations of 1.00, 0.80, 0.667 and 0.50 mg/mL (active ingredients); the control agent, 72% cream urea·manganese zinc WP was diluted at a concentration of 1.00 mg/mL (active ingredients); additionally clear water was used as the control. The first application was started before the onset of L.taurica. The instrument for application was a WS-18D knapsack electric sprayer, which employed a cone nozzle. Each agent was formulated into the desired concentrations according to the usage amount of the control clear water. Both sides of the tomato leaves were sprayed evenly. Thereafter, applications were conducted every 7 days consecutively for 4 times. 10 days after the fourth application, the number of sick leaves at each grade of powdery mildew was investigated following the grading standard of 9 grades, to calculate the disease index and the control effect.

E. cichoracearum = experiment: Field efficiency test, cucumber powdery mildew; assay type: in vivo; conditions: 0.50 mg/mL (active ingredients)
Description: as §1
10% of 3-(3',4'-methylenedioxy phenyl)-N-n-propyl acrylamide EC and 14% of 3-(3',4'-methylenedioxy phenyl)-piperidine acrylate EC were diluted at a concentration of 0.50 mg/mL (2000 fold liquid of active ingredients); the control agent, 10% of dimethomorph EW, was also diluted at a concentration of 0.50 mg/mL (2000 fold liquid of active ingredients); the control agent, 80% of mancozeb WP, was diluted at a concentration into a 500 fold liquid according to the usage amount of the formulation; the control agents, 12.5% of myclobutanil EC, 25% of propiconazole EC, 430 g/L of tebuconazole SC, 10% of hexaconazole EC and 37% of difenoconazole EC were all diluted at a concentration into 1500 fold liquids according to the usage amount of the formulation; additionally clear water was used as the control. The first application was started on June 15th, and E. cichoracearum was inoculated on June 17th (the sick leaves were harvested from the solar greenhouse near the military airfield at Xiaguanying town, Yuzhong County, moisturized in the greenhouse for 2 days, then shreded, and filtered over a gauze, the filtrate was sprayed onto both sides of the cucumber leaves with the cone nozzle of an electric sprayer for inoculation). […]

[1] = tested on: Erysiphe cucurbitacearum or Sphaerotheca cucurbitae; experiment: In-vivo greenhouse control of zucchini powdery mildew
Description: (§2) 3.88 g of 3-(3',4'-methylenedioxy phenyl)-N-n-propyl acrylamide was weighed and dissolved in 25 g of absolute ethyl alcohol, then 6 g of emulsifier 0203B was added, and mixed uniformly with stirring to get 10% of 3-(3',4'-methylenedioxy phenyl)-N-n-propyl acrylamide EC.
(§3) 5.61 g of 3-(3',4'-methylenedioxy phenyl)-piperidine acrylate was weighed and dissolved in 25 g of absolute ethyl alcohol, then 6 g of emulsifier 0203B was added, and mixed uniformly with stirring to get 14% of 3-(3',4'-methylenedioxy phenyl)-piperidine acrylate EC.
Zucchini (Variety: Wuwei Xianglin extra-early 1st generation) was cultured in pots in a greenhouse, and inoculated with Erysiphe cucurbitacearum or Sphaerotheca cucurbitae at the stage of 3 to 4 leaves. The first application was started at the early onset (onset at the first true leaf: first appearance of spots), comprising 10% of 3-(3',4'-methylenedioxy phenyl)-N-n-propyl acrylamide EC and 14% of 3-(3',4'-methylenedioxy phenyl)-piperidine acrylate EC, which were both diluted at four concentrations of 0.50, 0.333, 0.25, 0.20 mg/mL (active ingredients), additionally clear water was used as the control. Both sides of the leaves were sprayed evenly with a small hand-held sprayer so that the leaves were wetted by the liquor without loss. Applications were conducted every 7 days consecutively for 4 times. 10 days after the fourth application, the number of sick leaves at each grade of powdery mildew was investigated for the whole plant following the grading standard of 9 grades, to calculate the disease index and the control effect. The computational formula is as below: Disease index = [(Number of sick leaves at each grade×Corresponding grade value)/(Total number of investigated leaves×9)] × 100; [formula] Control effect = (Disease index of the clear water control−Treated disease index)/Disease index of the clear water control × 100. [formula]

[2] = tested on: Blumeria graminis f.sp.tritici; experiment: In-vivo greenhouse control of wheat powdery mildew; conditions: winter wheat, 0.20 mg/mL (active ingredients), application from early onset
Description: as §2, §3
Winter wheat (Variety: Huixian Red) was sown in pots in a greenhouse, and inoculated with a fresh spore suspension of Blumeria graminis f.sp.tritici by spraying on its leaves and stems at the stage of 2 leaves. The first application was started at the early onset of powdery mildew. Both sides of the leaves were sprayed evenly with a small hand-held sprayer so that the leaves were wetted by the liquor without loss. 10% of 3-(3',4'-methylenedioxy phenyl)-N-n-propyl acrylamide EC and 14% of 3-(3',4'-methylenedioxy phenyl)-piperidine acrylate EC were both diluted at two concentrations of 0.20 and 0.143 mg/mL (active ingredients), and the control agent, 15% of triazolone WP, was also diluted at two concentrations of 0.20 and 0.143 mg/mL (active ingredients), additionally clear water was used as the control. […]

[3] = 0.333 mg/mL (active ingredients)
[4] = 0.50 mg/mL (active ingredients), spray every 7 days, 4 times

Compound | Control Effect (L.taurica; 0.50 mg/mL) | Control Effect (L.taurica; 0.667 mg/mL) | Control Effect (L.taurica; 0.80 mg/mL) | Control Effect (L.taurica; 1.00 mg/mL) | Control Effect (E. cichoracearum) | Control Effect [1, 3] | Control Effect [1, 4] | Control Effect [2]
O=C(/C=C/c1ccc2c(c1)OCO2)N1CCCCC1 [3-(3',4'-methylenedioxyphenyl)-piperidine acrylate] | 81.68% | 88.19% | 90.36% | 97.85% | 69.84% | 67.06% | 67.06% and 87.13% | 59.11%
CCCNC(=O)/C=C/c1ccc2c(c1)OCO2 [3-(3',4'-methylenedioxyphenyl)-N-n-propyl acrylamide] |  |  |  |  | 88.38% | 77.13% | 91.09% | 86.97%
